System: human dermal papilla cells
Test: Promotion of proliferation of human dermal papilla cells (CellTiter-Glo Luminescent cell viability assay)
Assay type: cell-based
Settings: human dermal papilla cells (ScienCell, 2499); drug 0 to 30 μM; 48 hours; CellTiter-Glo luminescence; compared to DMSO-treated control group
Method: The effect of promoting cell proliferation by the drug was analyzed using human dermal papilla cells (ScienCell, 2499). Human dermal papilla cells cultured using Mesenchymal Stem Cell Medium (ScienCell, 7501) medium were seeded at a density of 3×10^3 cells/well and in a volume of 100 μl in a 96-well plate, incubated overnight at 37° C. and 5% CO2, treated with the drug at different concentrations ranging from 0 to 30 μM in a volume of 100 μL, and incubated at 37° C. and 5% CO2 for 48 hours. CellTiter-Glo Luminescent cell viability assay was performed according to the manufacturer's protocol (Promega, G7573) to detect cell proliferation. Luminescence was measured using an Envision 2102 multilabeled reader (PerkinElmer) equipment, and the cell proliferation rate was analyzed by the activity of the drug-treated group compared to the DMSO-treated group (control group), which is a solvent of the drug.

Compound	Maximum DP cell proliferation (%)
3-chloro-N-(2,3-dihydro-1H-inden-4-yl)-5-fluoro-1H-pyrazolo[3,4-b]pyridin-6-amine [Compound 8]	7.9
Nc1n[nH]c2nc(Nc3cccc4c3CCC4)c(F)cc12 [Compound 3, N6-(2,3-dihydro-1H-inden-4-yl)-5-fluoro-1H-pyrazolo[3,4-b]pyridine-3,6-diamine]	23
Nc1n[nH]c2nc(Nc3cccc4c3CCC4)ccc12 [Compound 4, N6-(2,3-dihydro-1H-inden-4-yl)-1H-pyrazolo[3,4-b]pyridine-3,6-diamine]	4
CC(C)(C)c1cccc(Nc2nc3[nH]nc(N)c3cc2F)c1 [Compound 5, N6-(3-(tert-butyl)phenyl)-5-fluoro-1H-pyrazolo[3,4-b]pyridine-3,6-diamine]	7.4
Cn1ccc2c(Nc3nc4[nH]nc(N)c4cc3F)cccc21 [Compound 6, 5-fluoro-N6-(1-methyl-1H-indol-4-yl)-1H-pyrazolo[3,4-b]pyridine-3,6-diamine]	7
Nc1n[nH]c2nc(Nc3cccc4c3COC4)c(F)cc12 [Compound 9, N6-(1,3-dihydroisobenzofuran-4-yl)-5-fluoro-1H-pyrazolo[3,4-b]pyridine-3,6-diamine]	2.6
Nc1n[nH]c2nc(Nc3cccc4occc34)c(F)cc12 [Compound 10, N6-(benzofuran-4-yl)-5-fluoro-1H-pyrazolo[3,4-b]pyridine-3,6-diamine]	13
Cc1cccc(Nc2nc3[nH]nc(N)c3cc2F)c1C [Compound 12, N6-(2,3-dimethylphenyl)-5-fluoro-1H-pyrazolo[3,4-b]pyridine-3,6-diamine]	5.4
CCOC(=O)c1cc2c(N)n[nH]c2nc1Nc1cccc2c1CCC2 [Compound 14, ethyl 3-amino-6-((2,3-dihydro-1H-inden-4-yl)amino)-1H-pyrazolo[3,4-b]pyridine-5-carboxylate]	5.3
Nc1n[nH]c2nc(Nc3cccc4c3CCC4)cnc12 [Compound 15, N6-(2,3-dihydro-1H-inden-4-yl)-1H-pyrazolo[3,4-b]pyrazine-3,6-diamine]	24
Nc1n[nH]c2nc(Nc3cccc4c3CCC4)c(C(=O)O)cc12 [Compound 16, 3-amino-6-((2,3-dihydro-1H-inden-4-yl)amino)-1H-pyrazolo[3,4-b]pyridine-5-carboxylic acid]	6.1
Cc1c(Cl)c(Nc2cccc3c2CCC3)nc2[nH]nc(N)c12 [Compound 17, 5-chloro-N6-(2,3-dihydro-1H-inden-4-yl)-4-methyl-1H-pyrazolo[3,4-b]pyridine-3,6-diamine]	6
Cc1ccc(Nc2nc3[nH]nc(N)c3cc2F)cc1C [Compound 18, N6-(3,4-dimethylphenyl)-5-fluoro-1H-pyrazolo[3,4-b]pyridine-3,6-diamine]	7.8
Nc1n[nH]c2nc(Nc3cccc4c3CCCC4)c(F)cc12 [Compound 19, 5-fluoro-N6-(5,6,7,8-tetrahydronaphthalen-1-yl)-1H-pyrazolo[3,4-b]pyridine-3,6-diamine]	9
CCCc1cc2c(N)n[nH]c2nc1Nc1cccc2c1CCC2 [Compound 21, N6-(2,3-dihydro-1H-inden-4-yl)-5-propyl-1H-pyrazolo[3,4-b]pyridine-3,6-diamine]	3
Nc1n[nH]c2nc(Nc3cccc4c3CCC4)c(-c3ccccc3)cc12 [Compound 23, N6-(2,3-dihydro-1H-inden-4-yl)-5-phenyl-1H-pyrazolo[3,4-b]pyridine-3,6-diamine]	5
Nc1n[nH]c2nc(Nc3cccc4ccccc34)c(F)cc12 [Compound 24, 5-fluoro-N6-(naphthalen-1-yl)-1H-pyrazolo[3,4-b]pyridine-3,6-diamine]	8
